Where “and” joins values, the source holds several entries; their conditions need not be identical. Identical values can stand only once.
What was measured:
cells [1] = assay type: functional, cell-based; settings: Rattus norvegicus, L6, 72 h
[2] = DNDI: Cytotoxicity in Vitro, 96 hour, in primary peritoneal mouse macrophages; assay type: functional, cell-based; settings: Macrophage
Leishmania donovani [3] = assay: microbe, parasite or virus in culture; assay type: functional, organism-based, MHOM/ET/67/L82
Leishmania donovani [4] = assay: microbe, parasite or virus in culture; assay type: functional, organism-based, MHOM/ET/67/L82; remark: listed apart in the source
cells [5] = assay type: functional, cell-based; settings: Mus musculus, NMRI, BalbC or CD1 mice, Macrophage, 96 h
[6] = tested on: Trypanosoma brucei rhodesiense; assay: microbe, parasite or virus in culture; assay type: functional, organism-based, STIB 900
Trypanosoma cruzi = assay: microbe, parasite or virus in culture; assay type: functional, organism-based, Tulahuen C4 (LacZ); settings: Trypanosoma cruzi, Tulahuen C4 (LacZ), 96 h
Plasmodium falciparum = assay: microbe, parasite or virus in culture; assay type: functional, organism-based, K1
[7] = Leishmania donovani, MHOM/ET/67/L82, 96 h
[8] = Leishmania donovani, MHOM/ET/67/L82, 72 h
[9] = Trypanosoma brucei, STIB 900, 72 h
[10] = Plasmodium falciparum, K1, 72 h

Row | SMILES | IC50 (cells [1]) [µM] | IC50 [2] [µM] | IC50 (Leishmania donovani [3]; [7]) [µM] | IC50 (Leishmania donovani [4]; [8]) [µM] | IC50 (cells [5]) [µM] | IC50 [6, 9] [µM] | IC50 (Trypanosoma cruzi) [µM] | IC50 (Leishmania donovani [3]) [µM] | IC50 (Leishmania donovani [4]) | IC50 (Plasmodium falciparum) | IC50 (Plasmodium falciparum; [10]) [µM] | IC50 [6] [µM]
1 | CC1CS(=O)(=O)CCC1/N=N/c1ccc([N+](=O)[O-])o1 (configuration not stated) | 87 | 15.7 | 20.7 | 2.76 | > 34.8 | 1.44 | 0.19 | – | – | – | – | –
2 | Clc1ccc(COC(Cn2ccnc2)c2ccc(Cl)cc2Cl)cc1 (configuration not stated) [ECONAZOLE] | 15.6 | 22.8 | – | – | 67.6 | – | – | – | – | – | – | –
3 | Clc1ccc(C(Cn2ccnc2)OCc2ccsc2Cl)c(Cl)c1 (configuration not stated) [TIOCONAZOLE] | – | 51.1 | > 7.74 | – | – | – | – | 13.1 | 22.4 µM and 9.26 µM | 0.63 µM | 1.07 | –
4 | O[C@@H](c1cc(C(F)(F)F)nc2c(C(F)(F)F)cccc12)[C@H]1CCCCN1 [(S,R)-MEFLOQUINE] | 3.25 | – | 2.41 | 38.6 | 7.23 | 0.53 | 4.48 | – | – | – | 0.0024 | –
5 | CC(C)(C)NC(=O)[C@@H]1CC2CCCCC2CN1C[C@@H](O)[C@H](Cc1ccccc1)NC(=O)[C@H](CC(N)=O)NC(=O)c1ccc2ccccc2n1 (some centres not stated) | 18.2 | – | > 44.7 | 77.4 | > 44.7 | 12.3 | 17.1 | – | – | – | 11.9 | –
6 | CCC[C@@H]1C[C@@H](C(=O)N[C@H]([C@@H]2O[C@H](SC)[C@H](O)[C@@H](O)[C@H]2O)[C@@H](C)O)N(C)C1 | > 221 | – | > 73.8 | > 221 | > 73.8 | > 221 | > 221 | – | – | – | 7.08 | –
7 | Cc1cccc(C)c1OCC(=O)N[C@@H](Cc1ccccc1)[C@@H](O)C[C@H](Cc1ccccc1)NC(=O)[C@H](C(C)C)N1CCCNC1=O [LOPINAVIR] | 18.9 | – | > 47.7 | 11.8 | > 47.7 | 10.8 | 15.4 | – | – | – | 1.92 | –
8 | O=C(O)c1cn(C2CC2)c2cc(N3CCNCC3)c(F)cc2c1=O [CIPROFLOXACIN] | 118 | – | > 90.5 | > 302 | > 90.5 | 35.9 | 92 | – | – | – | 13.2 | –
9 | CC(C)(C)NC(=O)[C@@H]1CN(Cc2cccnc2)CCN1C[C@@H](O)C[C@@H](Cc1ccccc1)C(=O)N[C@H]1c2ccccc2C[C@H]1O | > 141 | – | > 42.3 | > 141 | > 42.3 | 48.2 | 93.5 | – | – | – | 6.03 | –
10 | NNC(=O)c1ccncc1 [ISONIAZID] | > 656 | – | > 219 | > 656 | > 219 | > 656 | > 656 | – | > 729 µM | > 36.5 µM and 246 µM | – | > 729
11 | N=C(N)c1ccc(OCCCCCOc2ccc(C(=N)N)cc2)cc1 [PENTAMIDINE] | 8.87 | 7.78 | – | 19.8 | > 29.4 | 0.01 | 4.44 | – | – | – | – | –
12 | CN(C)CCCN1c2ccccc2Sc2ccccc21 [PROMAZINE] | 30.1 | – | > 35.2 | > 316 | > 35.2 | 2.16 | 49.1 | – | – | – | 0.49 | –
13 | CN(C)CCCN1c2ccccc2Sc2ccc(Cl)cc21 [CHLORPROMAZINE] | 12.3 | – | > 9.41 | 48.5 | 31.4 | 1.25 | 17.2 | – | – | – | 3.03 | –
14 | Clc1ccccc1C(c1ccccc1)(c1ccccc1)n1ccnc1 [CLOTRIMAZOLE] | 2.99 | 32.5 | – | – | 87 | – | – | – | – | – | – | –
15 | CN(C)CCCN1c2ccccc2Sc2ccc(C(F)(F)F)cc21 [TRIFLUPROMAZINE] | 18.5 | – | > 8.51 | 79.8 | 28.4 | 1.42 | 15 | – | – | – | 2.72 | –
16 | CO[C@H]1/C=C/O[C@]2(C)Oc3c(C)c(O)c4c(O)c(c5c(nc6cc(C)ccn65)c4c3C2=O)NC(=O)/C(C)=C\C=C\[C@H](C)[C@H](O)[C@@H](C)[C@@H](O)[C@H](C)[C@H](OC(C)=O)[C@H]1C | 88 | – | > 38.2 | 15 | > 38.2 | 17.1 | 40.2 | – | – | – | 0.92 | –
17 | CCC[C@@]1(CCc2ccccc2)CC(O)=C([C@H](CC)c2cccc(NS(=O)(=O)c3ccc(C(F)(F)F)cn3)c2)C(=O)O1 | 53.4 | – | > 49.8 | 1.64 | > 49.8 | 26.4 | 28.2 | – | – | – | 44.6 | –
18 | CNCCC=C1c2ccccc2CCc2ccccc21 [NORTRIPTYLINE] | 27.9 | – | > 11.4 | > 342 | 38 | 1.17 | 22.9 | – | – | – | 0.58 | –
19 | OCCN(CCO)c1nc(N2CCCCC2)c2nc(N(CCO)CCO)nc(N3CCCCC3)c2n1 [DIPYRIDAMOLE] | 38.6 | – | > 59.5 | 62 | > 59.5 | 7.45 | 29.3 | – | – | – | 1.3 | –
20 | C#C[C@]1(O)CC[C@H]2[C@@H]3CCC4=Cc5oncc5C[C@]4(C)[C@H]3CC[C@@]21C [DANAZOL] | 32 | – | > 29.6 | 10.2 | > 29.6 | 45.9 | 6.25 | – | – | – | 14.1 | –
21 | CO[C@H]1/C=C/O[C@@]2(C)Oc3c(C)c(O)c4c(O)c(cc(O)c4c3C2=O)NC(=O)/C(C)=C\C=C\[C@H](C)[C@H](O)[C@@H](C)[C@@H](O)[C@@H](C)[C@H](OC(C)=O)[C@@H]1C [RIFAMYCIN] | 15.7 | – | > 13.9 | 1.5 | 41.6 | 0.99 | 50 | – | – | – | 0.55 | –
22 | Cc1c(C)c2c(c(C)c1O)CCC(C)(COc1ccc(CC3SC(=O)NC3=O)cc1)O2 (configuration not stated) [TROGLITAZONE] | 80.6 | – | > 67.9 | 4.26 | > 67.9 | 59.3 | 32.6 | – | – | – | 7.27 | –
23 | COc1cc(C)c2c(Oc3cccc(C(F)(F)F)c3)c(OC)cc(N[C@H](C)CCCN)c2n1 | 5.52 | – | > 2.16 | 17.9 | 6.47 | 1.42 | 6.11 | – | – | – | 0.27 | –
24 | CN1CCN(CCCN2c3ccccc3Sc3ccc(C(F)(F)F)cc32)CC1 [TRIFLUOPERAZINE] | 11 | – | > 7.36 | 52.9 | 24.5 | 1.23 | 10.1 | – | – | – | 1.48 | –
25 | COc1ccc(Cl)cc1C(=O)NCCc1ccc(S(=O)(=O)NC(=O)NC2CCCCC2)cc1 [GLYBURIDE] | 116 | – | > 60.7 | 9.8 | > 60.7 | 87.7 | 93.9 | – | – | – | 38.3 | –
26 | Clc1ccc(COC(Cn2ccnc2)c2ccc(Cl)cc2Cl)c(Cl)c1 (configuration not stated) [MICONAZOLE] | 15.4 | 23.9 | – | – | 62.7 | – | – | – | – | – | – | –
27 | COc1ccc2[nH]c([S+]([O-])Cc3ncc(C)c(OC)c3C)nc2c1 (configuration not stated) [OMEPRAZOLE] | 126 | – | > 86.9 | 90.9 | > 86.9 | 51.8 | 68.3 | – | – | – | 13.2 | –
